Assay results as given in US12336995B2, “Combination therapies” (Mirati Therapeutics, Inc., priority 2018, dated 2025).

Columns and labels:
[1] = system: H2122 cells; test: In vivo tumor model, Compound 478 and Afatinib (Table 4a); details: for Average Tumor Volumes: H2122, Afatinib 12.5 mg/kg, single or combined
Experimental: (§1) Immunocompromised nude/nude mice were inoculated in the right hind flank with cells or patient derived tumor samples harboring a KRas G12C mutation. […] The first group was administered vehicle only. […] The fourth group was administered the single agent dose of the KRas G12C inhibitor in combination with the single agent dose of the pan ErbB family inhibitor. […] Tumor volumes were measured using a caliper every two-three days and tumor volumes were calculated by the formula: 0.5×(Length×Width)^2.
(§2) Tumor volumes were measured at pre-specified days set forth below.

[2] = system: KYSE-410 cells; test: In vivo tumor model, Compound 478 and Afatinib (Table 4b); details: KYSE-410, Afatinib 12.5 mg/kg, single or combined
Experimental: as §1, §2

[3] = system: LU6405 cells (PDX model); test: In vivo PDX model, Compound 478 and Afatinib (Table 4c); details: LU6405, Afatinib 12.5 mg/kg, single or combined
Experimental: as §1, §2

[4] = Day 11 post implant (treatment start), p.o. daily: Compound 478 100 mg/kg
[5] = Day 18 post implant, p.o. daily from Day 11: Compound 478 100 mg/kg
[6] = Day 25 post implant, p.o. daily from Day 11: Compound 478 100 mg/kg
[7] = Day 32 post implant, p.o. daily from Day 11: Compound 478 100 mg/kg
[8] = Day 34 post implant, p.o. daily from Day 11: Compound 478 100 mg/kg
[9] = Day 14 post implant, p.o. daily from Day 11: Compound 478 100 mg/kg
[10] = Day 21 post implant, p.o. daily from Day 11: Compound 478 100 mg/kg
[11] = Day 28 post implant, p.o. daily from Day 11: Compound 478 100 mg/kg

How did the “Average Tumor Volumes” value [1, 4] turn out when `CN(C)C/C=C/C(=O)Nc1cc2c(Nc3ccc(F)c(Cl)c3)ncnc2cc1OC1CCOC1` (centres unmarked) [Afatinib, (E)-N-(4-((3-chloro-4-fluorophenyl)amino)-7-((tetrahydrofuran-3-yl)oxy)quinazolin-6-yl)-4-(dimethylamino)but-2-enamide, reference compound] was run?
The value was 324.86 mm^3.

And the “Average Tumor Volumes” value ([1]; Day 13 post implant, p.o. daily from Day 11: Compound 478 100 mg/kg)?
Its value is 429.76 mm^3.

And the “Average Tumor Volumes” value ([1]; Day 15 post implant, p.o. daily from Day 11: Compound 478 100 mg/kg)?
The value was 573.36 mm^3.

And the “Average Tumor Volumes” value [1, 5]?
The value was 694.70 mm^3.

What about the “Average Tumor Volumes” value ([1]; Day 20 post implant, p.o. daily from Day 11: Compound 478 100 mg/kg) of the same compound?
The value was 850.85 mm^3.

What about the “Average Tumor Volumes” value ([1]; Day 22 post implant, p.o. daily from Day 11: Compound 478 100 mg/kg) of the same compound?
The value was 931.53 mm^3.

What about the “Average Tumor Volumes” value [1, 6] of the same compound?
The value was 1153.42 mm^3.

What about the “Average Tumor Volumes” value ([1]; Day 27 post implant, p.o. daily from Day 11: Compound 478 100 mg/kg) of the same compound?
The value was 1307.50 mm^3.

And the “Average Tumor Volumes” value ([1]; Day 29 post implant, p.o. daily from Day 11: Compound 478 100 mg/kg)?
Its value is 1137.09 mm^3.

What about the “Average Tumor Volumes” value [1, 7] of the same compound?
Its value is 1403.33 mm^3.

And the “Average Tumor Volumes” value [1, 8]?
Its value is 1830.13 mm^3.

What about the tumor growth inhibition ([1]; H2122 tumor bearing mice, Day 22 (Treatment Day 10), single agent, Compound 478 100 mg/kg, afatinib 12.5 mg/kg p.o. daily) of the same compound?
The tumor growth inhibition was 41%.

What about the “Average Tumor Volumes” value [2, 4] of the same compound?
Its value is 311.84 mm^3.

And the “Average Tumor Volumes” value [2, 9]?
Its value is 199.20 mm^3.

And the “Average Tumor Volumes” value ([2]; Day 16 post implant, p.o. daily from Day 11: Compound 478 100 mg/kg)?
Its value is 135.30 mm^3.

What about the “Average Tumor Volumes” value [2, 5] of the same compound?
Its value is 114.40 mm^3.

What about the “Average Tumor Volumes” value [2, 10] of the same compound?
Its value is 114.08 mm^3.

And the “Average Tumor Volumes” value ([2]; Day 23 post implant, p.o. daily from Day 11: Compound 478 100 mg/kg)?
Its value is 132.92 mm^3.

What about the “Average Tumor Volumes” value [2, 6] of the same compound?
Its value is 141.90 mm^3.

And the “Average Tumor Volumes” value [2, 11]?
The value was 144.36 mm^3.

And the “Average Tumor Volumes” value ([2]; Day 30 post implant, p.o. daily from Day 11: Compound 478 100 mg/kg)?
Its value is 166.46 mm^3.

And the “Average Tumor Volumes” value [2, 7]?
Its value is 163.92 mm^3.

And the “Average Tumor Volumes” value ([2]; Day 35 post implant, p.o. daily from Day 11: Compound 478 100 mg/kg)?
The value was 181.68 mm^3.

And the “Average Tumor Volumes” value ([2]; Day 37 post implant, p.o. daily from Day 11: Compound 478 100 mg/kg)?
Its value is 198.34 mm^3.

What about the “Average Tumor Volumes” value [3, 4] of the same compound?
The value was 257.48 mm^3.

What about the “Average Tumor Volumes” value [3, 9] of the same compound?
The value was 371.98 mm^3.

What about the “Average Tumor Volumes” value [3, 5] of the same compound?
Its value is 585.54 mm^3.

What about the “Average Tumor Volumes” value [3, 10] of the same compound?
Its value is 775.75 mm^3.

What about the “Average Tumor Volumes” value [3, 6] of the same compound?
Its value is 1056.23 mm^3.

And the “Average Tumor Volumes” value [3, 11]?
Its value is 1197.31 mm^3.

And the “Average Tumor Volumes” value [3, 7]?
Its value is 1540.74 mm^3.

And the “Average Tumor Volumes” value [3, 8]?
The value was 1655.49 mm^3.
